In patent publication US20220009918A1, “Chemical Compounds” (GlaxoSmithKline Intellectual Property Development Limited, priority 2018, published 2022):

Target: T1, human H-PGDS (Homo sapiens, UniProt O60760)
T1 construct: Full length human H-PGDS cDNA (Invitrogen Ultimate ORF IOH13026) was amplified by PCR; 6-His (N); TEV protease cleavage site (N); made in house; host or cells: E. coli BL21 (DE3*) for H-PGDS; Sf9 insect cells (baculovirus) for COX-2
Test: H-PGDS RapidFire high throughput mass spectrometry assay
Format: biochemical
Conditions: inhibition of conversion of PGH2 to PGD2 by H-PGDS; mean pIC50; read-out: Potency Range (mean pIC50) (converted)
Procedure, shortened: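 Full-length His-tagged human H-PGDS from E. coli converted PGH2, generated in situ (~10 μM burst) from arachidonic acid by FLAG-tagged human COX-2 (Sf9-expressed). PGD2 and PGF2α (substrate surrogate) were measured by RapidFire SPE-triple quadrupole MS. Percent conversion was calculated, and inhibition was taken as reduced conversion.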

T1 sequence (O60760 whole entry): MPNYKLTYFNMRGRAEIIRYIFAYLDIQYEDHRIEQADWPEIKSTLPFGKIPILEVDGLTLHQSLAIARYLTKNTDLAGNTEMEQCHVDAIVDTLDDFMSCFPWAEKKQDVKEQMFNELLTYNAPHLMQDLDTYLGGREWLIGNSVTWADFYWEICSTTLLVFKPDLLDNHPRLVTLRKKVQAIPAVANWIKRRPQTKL

For `CC1(C)C[C@H](NC(=O)c2cnc(-c3cc(F)cc(Cl)c3)s2)C(=O)N1` (single isomer, unassigned) [Example 16], the IC50 was 10.2 to 100 nM.
